Results as given in the NIST ThermoML archive (doi:10.1021/je800043a).
Numbers after ± are expanded uncertainties.

Assay: activity coefficient (dimensionless); of the first substance listed, at infinite dilution; xn = mol fraction of the nth substance listed
Conditions: Liquid, Chromatography, x1 = 0

SMILES | activity coefficient (303.15 K) | activity coefficient (313.15 K) | activity coefficient (323.15 K) | activity coefficient (333.15 K) | activity coefficient (343.15 K) | activity coefficient (353.15 K) | activity coefficient (363.15 K)
Cc1ccccc1C [1,2-dimethylbenzene] + CCCCCCn1cc[n+](C)c1.O=S(=O)([O-])C(F)(F)F | 2.39 ± 0.25 | 2.47 ± 0.26 | 2.56 ± 0.27 | 2.64 ± 0.28 | 2.67 ± 0.28 | 2.72 ± 0.28 | 2.8 ± 0.29
Cc1cccc(C)c1 [1,3-dimethylbenzene] + CCCCCCn1cc[n+](C)c1.O=S(=O)([O-])C(F)(F)F | 2.82 ± 0.3 | 2.88 ± 0.3 | 2.97 ± 0.31 | 3.03 ± 0.32 | 3.12 ± 0.33 | 3.19 ± 0.34 | 3.25 ± 0.34
Cc1ccc(C)cc1 [1,4-dimethylbenzene] + CCCCCCn1cc[n+](C)c1.O=S(=O)([O-])C(F)(F)F | 2.76 ± 0.29 | 2.84 ± 0.3 | 2.91 ± 0.3 | 2.97 ± 0.31 | 3.08 ± 0.32 | 3.16 ± 0.33 | 3.22 ± 0.34
CC(C)CC(C)(C)C [2,2,4-trimethylpentane] + CCCCCCn1cc[n+](C)c1.O=S(=O)([O-])C(F)(F)F | 27.5 ± 2.9 | 26.9 ± 2.8 | 26.7 ± 2.8 | 26.3 ± 2.8 | 25.9 ± 2.7 | 25.7 ± 2.7 | 25.4 ± 2.7
c1ccccc1 [benzene] + CCCCCCn1cc[n+](C)c1.O=S(=O)([O-])C(F)(F)F | 1.43 ± 0.15 | 1.48 ± 0.15 | 1.5 ± 0.16 | 1.55 ± 0.16 | 1.6 ± 0.2 | 1.64 ± 0.17 | 1.65 ± 0.17
C1CCCCC1 [cyclohexane] + CCCCCCn1cc[n+](C)c1.O=S(=O)([O-])C(F)(F)F | 11 ± 1.1 | 10.9 ± 1.1 | 10.8 ± 1.1 | 10.7 ± 1.1 | 10.6 ± 1.1 | 10.5 ± 1.1 | 10.5 ± 1.1
C1=CCCCC1 [cyclohexene] + CCCCCCn1cc[n+](C)c1.O=S(=O)([O-])C(F)(F)F | 6.12 ± 0.64 | 6.2 ± 0.65 | 6.26 ± 0.66 | 6.37 ± 0.67 | 6.43 ± 0.68 | 6.5 ± 0.68 | 6.55 ± 0.69
CCCCCCCCCC [decane] + CCCCCCn1cc[n+](C)c1.O=S(=O)([O-])C(F)(F)F | 457 ± 48 | 357 ± 38 | 279 ± 29 | 227 ± 24 | 184 ± 19 | 148 ± 16 | 112 ± 12
CCc1ccccc1 [ethylbenzene] + CCCCCCn1cc[n+](C)c1.O=S(=O)([O-])C(F)(F)F | 2.88 ± 0.3 | 2.94 ± 0.31 | 2.99 ± 0.31 | 3.04 ± 0.32 | 3.12 ± 0.33 | 3.21 ± 0.34 | 3.27 ± 0.34
CCCCCCC [heptane] + CCCCCCn1cc[n+](C)c1.O=S(=O)([O-])C(F)(F)F | 26.9 ± 2.8 | 26.7 ± 2.8 | 26.6 ± 2.8 | 26.5 ± 2.8 | 26.4 ± 2.8 | 26.3 ± 2.8 | 26.1 ± 2.7
CCCCCC [hexane] + CCCCCCn1cc[n+](C)c1.O=S(=O)([O-])C(F)(F)F | 21.3 ± 2.2 | 21.2 ± 2.2 | 21.1 ± 2.2 | 20.9 ± 2.2 | 20.8 ± 2.2 | 20.7 ± 2.2 | 20.5 ± 2.2
CC1CCCCC1 [methylcyclohexane] + CCCCCCn1cc[n+](C)c1.O=S(=O)([O-])C(F)(F)F | 14.1 ± 1.5 | 14 ± 2 | 13.9 ± 1.5 | 13.8 ± 1.4 | 13.7 ± 1.4 | 13.6 ± 1.4 | 13.5 ± 1.4
CCCCCCCCC [nonane] + CCCCCCn1cc[n+](C)c1.O=S(=O)([O-])C(F)(F)F | 45.4 ± 4.8 | 44.6 ± 4.7 | 43.7 ± 4.6 | 42.3 ± 4.5 | 41.8 ± 4.4 | 40.3 ± 4.2 | 39.9 ± 4.2
CCCCCCCC [octane] + CCCCCCn1cc[n+](C)c1.O=S(=O)([O-])C(F)(F)F | 35 ± 3.7 | 34.5 ± 3.6 | 33.9 ± 3.6 | 33.4 ± 3.5 | 33.1 ± 3.5 | 32.7 ± 3.4 | 32 ± 3.4
CCCCC [pentane] + CCCCCCn1cc[n+](C)c1.O=S(=O)([O-])C(F)(F)F | 14.8 ± 1.6 | 14.6 ± 1.5 | 14.5 ± 1.5 | 14.3 ± 1.5 | 14.1 ± 1.5 | 14 ± 1.5 | 13.9 ± 1.5
C=Cc1ccccc1 [styrene] + CCCCCCn1cc[n+](C)c1.O=S(=O)([O-])C(F)(F)F | 1.7 ± 0.2 | 1.73 ± 0.18 | 1.76 ± 0.18 | 1.81 ± 0.19 | 1.84 ± 0.19 | 1.85 ± 0.19 | 1.88 ± 0.2
Cc1ccccc1 [toluene] + CCCCCCn1cc[n+](C)c1.O=S(=O)([O-])C(F)(F)F | 1.98 ± 0.21 | 2.03 ± 0.21 | 2.06 ± 0.22 | 2.14 ± 0.23 | 2.2 ± 0.23 | 2.25 ± 0.24 | 2.27 ± 0.24
